Laboratory results published in ChEMBL document CHEMBL1201862, “PubChem BioAssay data set” (2004).
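Results reflect a 48-hour exposure of cells in 96-well plates to compound at five concentrations. GI50 marks 50% less growth.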 The source made the active and inactive calls. No stated cut-off is given here; in the data, active = GI50 up to about 1.1 µM and inactive = higher.

Legend:
Assay in all cases: inhibition of tumour cell growth, NCI panel, 48 h
OVCAR-8 = test system: OVCAR-8
NCI-H460 = test system: NCI-H460
A549 = test system: A549
HCT-15 = test system: HCT-15
SNB-75 = test system: SNB-75
CCRF-CEM = test system: CCRF-CEM
HCT-116 = test system: HCT-116
KM12 = test system: KM12
M14 = test system: M14
HOP-62 = test system: HOP-62
OVCAR-3 = test system: OVCAR-3
OVCAR-5 = test system: OVCAR-5
CAKI-1 = test system: CAKI-1
IGROV-1 = test system: IGROV-1
NCI-H226 = test system: NCI-H226
SNB-19 = test system: SNB-19
Hs-578T = test system: Hs-578T
NCI-H23 = test system: NCI-H23
SK-OV-3 = test system: SK-OV-3

Row | SMILES | GI50 (OVCAR-8) | GI50 (NCI-H460) | GI50 (A549) | GI50 (HCT-15) [µM] | GI50 (SNB-75) | GI50 (CCRF-CEM) | GI50 (HCT-116) | GI50 (KM12) | GI50 (M14) | GI50 (HOP-62) | GI50 (OVCAR-3) | GI50 (OVCAR-5) | GI50 (CAKI-1) | GI50 (IGROV-1) | GI50 (NCI-H226) | GI50 (SNB-19) | GI50 (Hs-578T) | GI50 (NCI-H23) | GI50 (SK-OV-3)
1 | Cn1c([N+](=O)[O-])cnc1CN1CCN(CCO)CC1 | > 100 µM (inactive) | > 100 µM (inactive) | > 100 µM (inactive) | > 100 | > 100 µM (inactive) | > 100 µM (inactive) | > 100 µM (inactive) | > 100 µM (inactive) | > 100 µM (inactive) | > 100 µM (inactive) | > 100 µM (inactive) | > 100 µM (inactive) | > 100 µM (inactive) | > 100 µM (inactive) | > 100 µM (inactive) | > 100 µM (inactive) | > 100 µM (inactive) | > 100 µM (inactive) | > 100 µM (inactive)
2 | COc1ccc(Oc2cccc(C3C4C(=O)N(c5ccc(C)c(Cl)c5)C(=O)C4ON3C(C(N)=O)c3ccccc3)c2)cc1 (centres undefined) | 17.5 µM (inactive) | 14.8 µM (inactive) | 20.9 µM (inactive) | 8.39 | 6.08 µM (inactive) | 14 µM (inactive) | 14 µM (inactive) | 18 µM (inactive) | 13.1 µM (inactive) | 35.2 µM (inactive) | 16.7 µM (inactive) | 17.7 µM (inactive) | 21 µM (inactive) | 18.8 µM (inactive) | 15.6 µM (inactive) | 24 µM (inactive) | 17.9 µM (inactive) | 8.55 µM (inactive) | > 50 µM (inactive)
3 | Cc1cc(C)cc(Nc2nnc3n2S(=O)(=O)c2cc(C)c(Cl)cc2S3)c1 | 3.97 µM (inactive) | 4.29 µM (inactive) | 5.01 µM (inactive) | 4.37 | 3.87 µM (inactive) | 0.313 µM (active) | 3.48 µM (inactive) | 8.38 µM (inactive) | 8.09 µM (inactive) | 7.31 µM (inactive) | 4.27 µM (inactive) | 5.35 µM (inactive) | 7.11 µM (inactive) | 5.43 µM (inactive) | 3.07 µM (inactive) | 4.3 µM (inactive) | 2.94 µM (inactive) | 2.96 µM (inactive) | 14.3 µM (inactive)
4 | C[C@]12C[C@H](c3ccccc3)Nc3ccccc3N1C(c1ccccc1)=NO2 | 85.7 µM (inactive) | 49.7 µM (inactive) | > 100 µM (inactive) | 67.9 | 51.3 µM (inactive) | 67.6 µM (inactive) | 60.8 µM (inactive) | 61 µM (inactive) | 49.2 µM (inactive) | > 100 µM (inactive) | 28.5 µM (inactive) | > 100 µM (inactive) | 64.3 µM (inactive) | > 100 µM (inactive) | > 100 µM (inactive) | > 100 µM (inactive) | > 100 µM (inactive) | 62.1 µM (inactive) | > 100 µM (inactive)
5 | CC(=O)OC1C2CCC3C(C)(O)C4CC(O)C(C)(C)C4(O)C(O)CC13CC2(C)O (centres undefined) | > 100 µM (inactive) | > 10 µM (inactive) | > 100 µM (inactive) | > 100 | > 100 µM (inactive) | > 100 µM (inactive) | > 100 µM (inactive) | > 100 µM (inactive) | > 100 µM (inactive) | > 100 µM (inactive) | > 100 µM (inactive) | > 100 µM (inactive) | > 100 µM (inactive) | > 100 µM (inactive) | > 100 µM (inactive) | > 100 µM (inactive) | > 100 µM (inactive) | > 100 µM (inactive) | > 100 µM (inactive)
6 | c1ccc(COCC23CCN(Cc4ccccc4)C(CC(OCc4ccccc4)C2)S3)cc1 (centres undefined) | 73.5 µM (inactive) | 46.7 µM (inactive) | 41.4 µM (inactive) | 28.6 | > 100 µM (inactive) | 56.8 µM (inactive) | 42.7 µM (inactive) | 44.1 µM (inactive) | 39.3 µM (inactive) | 65.9 µM (inactive) | 97.5 µM (inactive) | 38.2 µM (inactive) | 77.1 µM (inactive) | > 100 µM (inactive) | 97.3 µM (inactive) | 90.8 µM (inactive) | 86.3 µM (inactive) | 31.4 µM (inactive) | > 100 µM (inactive)
7 | N#Cc1ncn(-c2ccccc2)c1N | > 100 µM (inactive) | > 100 µM (inactive) | > 100 µM (inactive) | > 100 | > 100 µM (inactive) | > 100 µM (inactive) | > 100 µM (inactive) | > 100 µM (inactive) | > 100 µM (inactive) | > 100 µM (inactive) | > 100 µM (inactive) | > 100 µM (inactive) | > 100 µM (inactive) | > 100 µM (inactive) | > 100 µM (inactive) | > 100 µM (inactive) | > 100 µM (inactive) | > 100 µM (inactive) | > 100 µM (inactive)
8 | O=C(NC(=O)c1ccccc1)OC(c1ccccc1)C1CO1 (centres undefined) | > 100 µM (inactive) | > 100 µM (inactive) | > 100 µM (inactive) | > 100 | > 100 µM (inactive) | > 100 µM (inactive) | > 100 µM (inactive) | > 100 µM (inactive) | > 100 µM (inactive) | > 100 µM (inactive) | > 100 µM (inactive) | > 100 µM (inactive) | > 100 µM (inactive) | > 100 µM (inactive) | > 100 µM (inactive) | > 100 µM (inactive) | > 100 µM (inactive) | > 100 µM (inactive) | > 100 µM (inactive)
9 | CC1(CC(=O)O)OC2CCCCCC2O1.NCc1ccccc1 (centres undefined) | > 100 µM (inactive) | > 100 µM (inactive) | > 100 µM (inactive) | > 100 | 99.3 µM (inactive) | 34.2 µM (inactive) | 74.8 µM (inactive) | 64.6 µM (inactive) | > 100 µM (inactive) | > 100 µM (inactive) | > 100 µM (inactive) | > 100 µM (inactive) | > 100 µM (inactive) | > 100 µM (inactive) | > 100 µM (inactive) | > 100 µM (inactive) | > 100 µM (inactive) | > 100 µM (inactive) | > 100 µM (inactive)
10 | COc1ccc2nc3cc(Cl)ccc3c(NCCNC(=O)Cn3c(=O)n(C)c(=O)c4c3nc3c(c(=O)n(C)c(=O)n3C)[n+]4[O-])c2c1 | 2.47 µM (inactive) | 44.7 µM (inactive) | 71.8 µM (inactive) | > 100 | 33.9 µM (inactive) | 50 µM (inactive) | 35.2 µM (inactive) | 61.8 µM (inactive) | > 81.8 µM (inactive) | 20.7 µM (inactive) | 39.5 µM (inactive) | > 72.8 µM (inactive) | > 80 µM (inactive) | 19.1 µM (inactive) | 35.6 µM (inactive) | 23.9 µM (inactive) | 20.3 µM (inactive) | 21.2 µM (inactive) | 32.1 µM (inactive)
11 | Nc1n[n+]([O-])c2cnccc2[n+]1[O-] | 31.3 µM (inactive) | 34.8 µM (inactive) | 33.9 µM (inactive) | 32 | > 100 µM (inactive) | 8.28 µM (inactive) | 32.4 µM (inactive) | 58.7 µM (inactive) | 22.3 µM (inactive) | > 100 µM (inactive) | 35.4 µM (inactive) | 52 µM (inactive) | > 100 µM (inactive) | 37.2 µM (inactive) | > 100 µM (inactive) | > 100 µM (inactive) | > 100 µM (inactive) | 42.2 µM (inactive) | > 100 µM (inactive)
12 | Cn1c2ccccc2c(=NNc2ccc(S(=O)(=O)N=C(N)N)cc2)c2ccccc21 | 6.03 µM (inactive) | 3.37 µM (inactive) | 10 µM (inactive) | 10.2 | 12.2 µM (inactive) | 6.68 µM (inactive) | 5.65 µM (inactive) | 7.98 µM (inactive) | 16.3 µM (inactive) | 11.8 µM (inactive) | 7.35 µM (inactive) | 6.24 µM (inactive) | 10.8 µM (inactive) | 11.7 µM (inactive) | 4.49 µM (inactive) | 10.6 µM (inactive) | 17.6 µM (inactive) | 9.64 µM (inactive) | 8.93 µM (inactive)
13 | COC(=O)C(CSSC[C@H](N/C(C)=C/C(C)=O)C(=O)OC)N/C(C)=C/C(C)=O (some centres undefined) | < 0.01 µM (active) | > 100 µM (inactive) | 99.8 µM (inactive) |  | 71.4 µM (inactive) | 26.4 µM (inactive) | 27 µM (inactive) | 28.8 µM (inactive) | 30.8 µM (inactive) | 57.9 µM (inactive) | 4.17 µM (inactive) | 18.7 µM (inactive) | 17.3 µM (inactive) | 36.7 µM (inactive) | > 100 µM (inactive) | > 100 µM (inactive) | 21.6 µM (inactive) | > 100 µM (inactive) | > 100 µM (inactive)
14 | CCCCc1ccc(Nc2ncc3ncn(COCCO)c3n2)cc1 | 29 µM (inactive) | 22.4 µM (inactive) | 37.2 µM (inactive) | 34.9 | 24.8 µM (inactive) | 20.8 µM (inactive) | 21 µM (inactive) | 27.3 µM (inactive) | 21.5 µM (inactive) | 26.6 µM (inactive) | 22.8 µM (inactive) | 32.7 µM (inactive) | 49.1 µM (inactive) | 28.6 µM (inactive) | 62.2 µM (inactive) | 44.3 µM (inactive) | 20.8 µM (inactive) | 27.7 µM (inactive) | 79.8 µM (inactive)
15 | c1ccc2cc(CNCCOCCOCCNCc3ccc4ccccc4c3)ccc2c1 | 1.77 µM (inactive) | 1.64 µM (inactive) | 1.74 µM (inactive) | 1.94 | 1.95 µM (inactive) | 1.97 µM (inactive) | 1.58 µM (inactive) | 1.6 µM (inactive) | 1.95 µM (inactive) | 1.85 µM (inactive) | 1.67 µM (inactive) | 1.9 µM (inactive) | 1.81 µM (inactive) | 1.7 µM (inactive) | 2.09 µM (inactive) | 2.31 µM (inactive) | 1.57 µM (inactive) | 2 µM (inactive) | 3.13 µM (inactive)
